Experiments:
[1] = test system: superoxide anion signal from PMA-stimulated human polymorphonuclear leukocytes (PMNs); test: Direct superoxide anion scavenging by EPR spectroscopy (DEPMPO spin trap) in PMA-stimulated isolated human neutrophils; format: cell-based; details: millimolar range, water
Method: Leukocyte Isolation and Preparation. Human polymorphonuclear leukocytes (PMNs) were isolated from freshly sampled venous blood of a single volunteer by Percoll density gradient centrifugation as described previously. Briefly, each 10 mL of whole blood was mixed with 0.8 mL of 0.1 M EDTA and 25 mL of saline. The diluted blood was then layered over 9 mL of Percoll at a specific density of 1.080 g/mL. After centrifugation at 400×g for 20 min at 20° C., the plasma, mononuclear cell, and Percoll layers were removed. Erythrocytes were subsequently lysed by addition of 18 mL of ice-cold water for 30 s, followed by 2 mL of 10×PIPES buffer (25 mM PIPES, 110 mM NaCl, and 5 mM KCl, titrated to pH 7.4 with NaOH). […] Afterward, PMNs were counted by light microscopy on a hemocytometer. […]
EPR Measurements. […] The microwave frequency was measured with a Model 575 microwave counter (EIP Microwave, Inc., San Jose, Calif.). […]
Instrument settings used in the spin-trapping experiments were as follows: modulation amplitude, 0.32 G; time constant, 0.16 s; scan time, 60 s; modulation frequency, 100 kHz; microwave power, 20 milliwatts; and microwave frequency, 9.76 GHz. The samples were placed in a quartz EPR flat cell, and spectra were recorded. The component signals in the spectra were identified and quantified as reported previously.

[2] = test system: mouse heart (myocardium) redox status; test: Whole-body time-course PEDRI of TEMPONE nitroxide decay in the myocardial region of treated mice; format: in vivo; details: 10 mg/kg daily I.V. for 4 days, TEMPONE probe
From the text: Proton electron double resonance imaging (PEDRI) is a recently developed low-field double magnetic resonance technique (Lurie et al. 2002). The technique uses the Overhauser effect to image the distribution of free radicals in biological samples. Of particular interest is that the technique can be extended to whole animals, allowing systemic redox state analysis as well as individual target organ analysis after therapeutic treatment. The in vivo application of the technique requires a balance between the electron paramagnetic resonance (EPR) irradiation frequency and the magnetic field applied: sufficiently low magnetic field must be utilized that allows penetration of the whole animal, while at the same time limiting nonresonant power deposition in the animal. […]
After the mice were placed in the PEDRI resonator, a bolus injection of 0.55-0.6 mL (normalized to the body weight of the individual animal) of 100 mM TEMPONE solution in PBS was given over 50-55 s through the tail vein. A series of time-course PEDRI measurements were then acquired every 10-15 s after the injection of the nitroxide probe solution, until the image intensity reached a minimum (i.e., no nitroxide signal could be detected). […]

| Compound | aqueous superoxide scavenging profile (in words) [1] | rate of nitroxide reduction in the mouse heart compared to untreated control animals [2] | half-time (t) for the decay of the nitroxide signal intensity, myocardial region ([2]; mean±SEM, n=4, untreated 0.49±0.08) [min] |
| --- | --- | --- | --- |
| 3,3′-Diphosphoryloxy-β,ε-carotene sodium salt [compound 9] | slightly increased scavenging | – | – |
| CC1=C(/C=C/C(C)=C/C=C/C(C)=C/C=C/C=C(C)/C=C/C=C(C)/C=C/C2=C(C)C(=O)C(OC(=O)CCC(=O)O)CC2(C)C)C(C)(C)CC(OC(=O)CCC(=O)O)C1=O (stereo not drawn) [Cardax™, disodium disuccinate derivative of synthetic astaxanthin] | – | slower mean rate of nitroxide reduction | 0.99 ± 0.14 |

— US20070238793A1, “Structural carotenoid analogs or derivatives for the modulation of systemic and/or target organ redox status” (priority 2005, published 2007)
